# Reference: patent publication US9931372B2, “Synthetic apelin fatty acid conjugates with improved half-life” (Novartis AG, priority 2015, dated 2018)
# pEC50: −log10 of the molar value. Where two headings read alike, the source gives them in different places. Bridge positions count the residues as written; N and C are the ends. Square brackets hold non-standard residues; d marks the D form. Peptide text beside a SMILES is read from it. * marks the point of attachment. PEG24 = NCCOCCOCCOCCOCCOCCOCCOCCOCCOCCOCCOCCOCCOCCOCCOCCOCCOCCOCCOCCOCCOCCOCCOCCOCCC(=O)O; Malonyl(C11H23,(CH2)10COOH) = CCCCCCCCCCCC(CCCCCCCCCCC(=O)O)(C(=O)O)C(=O)*; PEG12 = NCCOCCOCCOCCOCCOCCOCCOCCOCCOCCOCCOCCOCCC(=O)O; pGlu = O=C1CC[C@@H](C(=O)O)N1; PEG4 = NCCOCCOCCOCCOCCC(=O)O; Nle = CCCC[C@H](N)C(=O)O
# Tests used:
# [1] = In vivo pharmacokinetic assessment via SC dosing; settings: mouse, C57/B6 mice, subcutaneous dosing, plasma, read-out: t½ (converted)
# Experimental: Protocols and Data for the In Vivo Pharmacokinetic Assessment Via SC Dosing. Formulation, Dosing and Sample Acquisition: […]
# Example 1 and example 4 were dissolved to 0.1 mg/ml concentration in 30% (w/v) PEG300 and 5% (w/v) dextrose in PBS. C57/B6 mice (˜20 weeks of age) were dosed with dissolved compound by subcutaneous (SC) injection into the flank (n=4 per compound). Injection volume was 10 ml/kg. Blood samples were withdrawn from the saphenous vein at 3 and 6 hours post-dose, as well as at 1, 2, 4, 7 and 10 days post dose. Blood samples were immediately centrifuged at 4000×g for 10 min. Plasma supernatant (10 μL) was transferred to a 96-well plate and frozen at −80 C until analysis.
# C57/B6J mice (˜22 weeks of age) were dosed with dissolved compound by SC injection (n=4). Blood samples were withdrawn from the tail vein at 15, 30, 60 and 120 minutes post injection. These were immediately centrifuged and then plasma supernatant was transferred to a 96-well plate and frozen at −80 C until analysis.
# Preparation of Samples for Bioanalysis:
# A pre-weighed sample of each compound (1-3 mg) was obtained and dissolved to 1 mg/ml in DMSO. These were diluted serially in mouse plasma (BioReclamation) to final concentrations of 10,000, 5,000, 1,000, 500, 100, 50, 10, 5, and 1 ng/ml to make standard curve for analysis.
# Plasma samples from PK studies were thawed and diluted to 25 μL total volume by addition of mouse plasma.
# 25 μL aliquots of each sample and standard curve sample were arranged on a 96-well plate.
# 150 μL acetonitrile containing 100 ng/ml glyburide as internal standard was added to each sample and the samples vortexed for 30 seconds. Samples were then centrifuged at 4000×g for 10 minutes. 125 μL supernatant was then transferred to a fresh 96-well plate. 50 μL of water was added and mixed by vortexing for 30 seconds.
# LC/MS Bioanalysis (Agilent 1290):
# Samples (10 μL) were transferred to an HPLC using a CTC PAL autosampler. The LC column was ACE C18 30×2.1 mm, 3.0 μm bead. […]
# [2] = Surrogate activity-based plasma stability assay; assay type: in vitro ADME; settings: rat
# Text: Surrogate Activity-Based Plasma Stability Assay:
# 2) Calculate slope of value above and […]
# hAPJ = target: T1, hAPJ (Homo sapiens, UniProt P35414); test: hAPJ Calcium flux assay; assay type: cell-based
# T1 sequence (P35414 1-380): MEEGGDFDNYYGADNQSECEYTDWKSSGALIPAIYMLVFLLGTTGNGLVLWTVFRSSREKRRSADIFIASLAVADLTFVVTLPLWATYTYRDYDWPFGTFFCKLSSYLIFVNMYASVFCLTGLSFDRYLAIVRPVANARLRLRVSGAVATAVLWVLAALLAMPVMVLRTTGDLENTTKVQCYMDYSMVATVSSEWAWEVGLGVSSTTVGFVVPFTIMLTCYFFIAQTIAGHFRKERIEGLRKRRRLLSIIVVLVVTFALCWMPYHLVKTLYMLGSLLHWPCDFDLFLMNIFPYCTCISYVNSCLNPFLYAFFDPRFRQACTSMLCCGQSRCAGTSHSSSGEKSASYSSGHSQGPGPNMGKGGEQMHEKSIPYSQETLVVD
# Experimental: Chem-5 APJ stable cells (Millipore # HTS068C) were plated in 384-well format with 10,000 cells/well in 25 ul growth media, then grown 24 hours in a 37° C. tissue culture incubator. One hour before the assay, 25 ul/well FLIPR Calcium 4 dye (Molecular Devices R8142) with 2.5 mM probenecid was added, and cells were incubated one hour in a 37° C. tissue culture incubator. Bioconjugates were solubilized in HBSS, HEPES & 0.1% BSA buffer, and serially-diluted 10-fold, from 50 uM to 5 pM, in triplicate. FLIPR Tetra was used to add bioconjugates to the cells with dye (1:5, for final bioconjugate concentrations ranging from 10 uM to 1 pM). FLIPR dye inside the cells emitted fluorescence after binding to calcium, while fluorescence from outside the cells was masked. Fluorescence was measured using 470-495 excitation and 515-575 emission wavelengths on the FLIPR Tetra. Readings were done for 3 minutes total, beginning 10 seconds before the bioconjugate addition. Maximum-minimum values were calculated and plotted for each bioconjugate concentration, and GraphPad prism software was used to calculate EC50 values at the curve inflection points, for calcium flux stimulation by bioconjugates.
# [3] = Chem-5 APJ stable cells, FLIPR calcium flux, read-out: hAPJ Ca^2+ Flux EC50
pEC50 (hAPJ; [3]),Compound,half-life ([1]; 1 mg/kg) [h],half-life [2] [h],half-life [1] [h],pEC50 (hAPJ)
6.95,"CCCCCCCCCCCC(CCCCCCCCCCC(=O)O)(C(=O)O)C(=O)NCCOCCOCCOCCOCCOCCOCCOCCOCCOCCOCCOCCOCCOCCOCCOCCOCCOCCOCCOCCOCCOCCOCCOCCOCCC(=O)N[C@@H](CCC(N)=O)C(=O)N[C@@H](CCCNC(=N)N)C(=O)N1CCC[C@H]1C(=O)N[C@@H](CCCNC(=N)N)C(=O)N[C@@H](CC(C)C)C(=O)N[C@H]1CSSC[C@@H](C(=O)N[C@@H](Cc2ccccc2)C(=O)O)NC(=O)[C@H](CCCC)NC(=O)[C@@H]2CCCN2C(=O)CNC(=O)[C@H](CCCCN)NC(=O)[C@H](Cc2cnc[nH]2)NC1=O (stereo partly drawn) [Example 1, Fatty Acid-Linker#1Q-R-P-R-L-C*-H-K-G-P-(Nle)-C*-F (C6-C12 Disulfide Bridge)] ({Malonyl(C11H23,(CH2)10COOH)-PEG24}-QRPRLCHKGP[Nle]CF-OH; disulfide 6-12)",43,> 16.7,–,–
7.07,"CCCCCCCCCCCC(CCCCCCCCCCC(=O)O)(C(=O)O)C(=O)NCCOCCOCCOCCOCCOCCOCCOCCOCCOCCOCCOCCOCCC(=O)N[C@@H](CCC(N)=O)C(=O)N[C@@H](CCCNC(=N)N)C(=O)N1CCC[C@H]1C(=O)N[C@@H](CCCNC(=N)N)C(=O)N[C@@H](CC(C)C)C(=O)N[C@H]1CSSC[C@@H](C(=O)N[C@@H](Cc2ccccc2)C(=O)O)NC(=O)[C@H](CCCC)NC(=O)[C@@H]2CCCN2C(=O)CNC(=O)[C@H](CCCCN)NC(=O)[C@H](Cc2cnc[nH]2)NC1=O (some centres unmarked) [Example 2] ({Malonyl(C11H23,(CH2)10COOH)-PEG12}-QRPRLCHKGP[Nle]CF-OH; disulfide 6-12)",–,> 16.7,–,–
6.80,"CCCCCCCCCCCC(CCCCCCCCCCC(=O)O)(C(=O)O)C(=O)NCCOCCOCCOCCOCCC(=O)N[C@@H](CCC(N)=O)C(=O)N[C@@H](CCCNC(=N)N)C(=O)N1CCC[C@H]1C(=O)N[C@@H](CCCNC(=N)N)C(=O)N[C@@H](CC(C)C)C(=O)N[C@H]1CSSC[C@@H](C(=O)N[C@@H](Cc2ccccc2)C(=O)O)NC(=O)[C@H](CCCC)NC(=O)[C@@H]2CCCN2C(=O)CNC(=O)[C@H](CCCCN)NC(=O)[C@H](Cc2cnc[nH]2)NC1=O (some centres unmarked) [Example 4] ({Malonyl(C11H23,(CH2)10COOH)-PEG4}-QRPRLCHKGP[Nle]CF-OH; disulfide 6-12)",23,> 16.7,–,–
–,"CCCC[C@@H]1NC(=O)[C@@H]2CCCN2C(=O)CNC(=O)[C@H](CCCCN)NC(=O)[C@H](Cc2cnc[nH]2)NC(=O)[C@@H](NC(=O)[C@H](CC(C)C)NC(=O)[C@H](CCCNC(=N)N)NC(=O)[C@@H]2CCCN2C(=O)[C@H](CCCNC(=N)N)NC(=O)[C@@H]2CCC(=O)N2)CSSC[C@@H](C(=O)N[C@@H](Cc2ccccc2)C(=O)O)NC1=O [pE-R-P-R-L-C*-H-K-G-P-Nle-C*-F-OH, reference compound] ([pGlu]RPRLCHKGP[Nle]CF-OH; disulfide 6-12)",–,2.2,0.52,9.00
